Patent US9204644B2, “Nanoparticles compositions containing polymers and anthranilic acid diamide insecticides for propagule coating” (priority 2011, dated 2015)

System: 2nd instar larva of Spodoptera frugiperda
Assay: Laboratory test of larval mortality on maize leaves
Type: in vivo

## CNC(=O)c1cc(Cl)cc(C)c1NC(=O)c1cc(Br)nn1-c1ncccc1Cl [Compound 2, 3-bromo-N-[4-chloro-2-methyl-6-[(methylamino)carbonyl]phenyl]-1-(3-chloro-2-pyridinyl)-1H-pyrazole-5-carboxamide]
  concentration in leaf tissue needed to achieve 100% mortality within 72 h: 0.037 micrograms per g of tissue
  concentration in leaf tissue resulting in 50% mortality within 72 h: 0.033 micrograms per g of leaf tissu
